According to patent EP4793274A1, “SALT AND CRYSTAL FORM OF KIF18A INHIBITOR COMPOUND, PREPARATION METHOD THEREFOR AND USE THEREOF” (Hubei Bio-Pharmaceutical Industrial Technological Institute …, priority 2023, dated 2025):
Counter-ions that a name gives are not always drawn.

How the values were obtained:
[1] = Hygroscopicity by dynamic vapor sorption (DVS); type: physicochemical; details: 25 °C/80% RH
Description: Dynamic vapor sorption (DVS) curves were acquired on a DVS IntrInsic from Surface Measurement Systems (SMS). The relative humidity at 25 °C was corrected with the deliquescence points of LiCl, Mg(NO3)2, and KCl. Table A-5. DVS test parameters
The percentage changes in mass of the samples when the humidity changed (0% RH to 95% RH) at a constant temperature of 25 °C were collected. 157-166.

[2] = Solid state stability (XRPD and HPLC purity); type: physicochemical
Text: 167-171. […] Table C-3. Summary of solid state stability evaluation

[3] = Dynamic solubility at 37 °C in H2O, SGF, FaSSIF and FeSSIF (HPLC concentration, pH of filtrate, XRPD of residual solid); type: physicochemical; details: listed as Crystal form A of maleate; for S: solubility: feeding concentration 10 mg/mL; for FC: crystal form change: XRPD of residual solid; for pH: pH of filtrate
Description: 0.82 mL of glacial acetic acid and 1.18 g of NaCl were added to a 100 mL volumetric flask and completely dissolved by addition of purified water.
The solubility of each sample in H2O, SGF, FaSSIF, and FeSSIF was determined at different time points (1 h, 2 h, 4 h, and 24 h). […] 137-156. […] Table C-2. Summary of dynamic solubility test results at 37 °C

[4] = Solubility at room temperature in water, SGF and FaSSIF (HPLC concentration, pH of filtrate, XRPD of residual solid); details: listed as Crystal form A of maleate; for S: solubility: feeding concentration 1 mg/mL; for pH: pH of filtrate
[5] = 80 °C/sealed, 1 day, listed as Crystal form A of maleate

Cc1cc(-c2cnn(-c3ccc(NS(=O)(=O)CCO)cc3N3CCC4(CC3)CC4)c2)nc(N2CCC(F)(F)CC2)n1 [crystal form A of the maleate]
vapor sorption values [1]: 0.235%
HPLC results Relative to starting (%) ([2]; 25 °C/60% RH/open, 1 week): 100.0%
HPLC results Purity (area%) ([2]; 25 °C/60% RH/open, 1 week, listed as Crystal form A of maleate): 98.26 area%
HPLC results Relative to starting (%) ([2]; 40 °C/75% RH/open, 1 week): 100.0%
HPLC results Purity (area%) ([2]; 40 °C/75% RH/open, 1 week, listed as Crystal form A of maleate): 98.30 area%
HPLC results Purity (area%) [2, 5]: 98.08 area%
HPLC results Relative to starting (%) [2, 5]: 99.8%
HPLC results Purity (area%) ([2]; Starting, listed as Crystal form A of maleate): 98.29 area%
Crystal form ([2]; XRPD after 25 °C/60% RH/open, 1 week, listed as Crystal form A of maleate): Crystal form A of maleate
Crystal form ([2]; XRPD after 40 °C/75% RH/open, 1 week, listed as Crystal form A of maleate): Crystal form A of maleate
Crystal form ([2]; XRPD after 80 °C/sealed, 1 day, listed as Crystal form A of maleate): Crystal form A of maleate
S: solubility ([3]; FaSSIF, 1 h, 60 min): 62.7 µg/mL
S: solubility ([3]; FaSSIF, 2 h, 120 min): 48.9 µg/mL
S: solubility ([3]; FaSSIF, 4 h, 240 min): 39.7 µg/mL
S: solubility ([3]; FaSSIF, 24 h, 1440 min): 25.3 µg/mL
S: solubility ([3]; FeSSIF, 1 h, 60 min): 202.5 µg/mL
S: solubility ([3]; FeSSIF, 2 h, 120 min): 182.4 µg/mL
S: solubility ([3]; FeSSIF, 4 h, 240 min): 169.5 µg/mL
S: solubility ([3]; FeSSIF, 24 h, 1440 min): 94 µg/mL
S: solubility ([3]; H2O, 1 h, 60 min): 13.9 µg/mL
S: solubility ([3]; H2O, 2 h, 120 min): 9.8 µg/mL
S: solubility ([3]; H2O, 4 h, 240 min): 5.2 µg/mL
S: solubility ([3]; H2O, 24 h, 1440 min): 0.9 µg/mL
S: solubility ([3]; SGF, 1 h, 60 min): 79.5 µg/mL
S: solubility ([3]; SGF, 2 h, 120 min): 71.8 µg/mL
S: solubility ([3]; SGF, 4 h, 240 min): 57.9 µg/mL
S: solubility ([3]; SGF, 24 h, 1440 min): 11.1 µg/mL
FC: crystal form change ([3]; FaSSIF, 1 h): Yes
FC: crystal form change ([3]; FaSSIF, 2 h): Yes
FC: crystal form change ([3]; FaSSIF, 4 h): Yes
FC: crystal form change ([3]; FaSSIF, 24 h): Yes
FC: crystal form change ([3]; FeSSIF, 1 h): Yes
FC: crystal form change ([3]; FeSSIF, 2 h): Yes
FC: crystal form change ([3]; FeSSIF, 4 h): Yes
FC: crystal form change ([3]; FeSSIF, 24 h): Yes
FC: crystal form change ([3]; H2O, 1 h): Yes
FC: crystal form change ([3]; H2O, 2 h): Yes
FC: crystal form change ([3]; H2O, 4 h): Yes
FC: crystal form change ([3]; H2O, 24 h): Yes
FC: crystal form change ([3]; SGF, 1 h): Yes
FC: crystal form change ([3]; SGF, 2 h): Yes
FC: crystal form change ([3]; SGF, 4 h): Yes
FC: crystal form change ([3]; SGF, 24 h): Yes
pH ([3]; FaSSIF, 1 h): 2.94
pH ([3]; FaSSIF, 2 h): 2.90
pH ([3]; FaSSIF, 4 h): 2.90
pH ([3]; FaSSIF, 24 h): 2.90
pH ([3]; FeSSIF, 1 h): 4.66
pH ([3]; FeSSIF, 2 h): 4.68
pH ([3]; FeSSIF, 4 h): 4.67
pH ([3]; FeSSIF, 24 h): 4.70
pH ([3]; H2O, 1 h): 2.00
pH ([3]; H2O, 2 h): 2.05
pH ([3]; H2O, 4 h): 1.98
pH ([3]; H2O, 24 h): 2.03
pH ([3]; SGF, 1 h): 1.55
pH ([3]; SGF, 2 h): 1.57
pH ([3]; SGF, 4 h): 1.54
pH ([3]; SGF, 24 h): 1.58
S: solubility ([4]; FaSSIF, 2 h, 120 min): 126.8 µg/mL
S: solubility ([4]; FaSSIF, 24 h, 1440 min): 47.9 µg/mL
S: solubility ([4]; H2O, 24 h, 1440 min): 0.3 µg/mL
S: solubility ([4]; SGF, 2 h, 120 min): 51.2 µg/mL
S: solubility ([4]; SGF, 24 h, 1440 min): 36.6 µg/mL
pH ([4]; FaSSIF, 2 h): 6.4
pH ([4]; FaSSIF, 24 h): 6.2
